Assay results as given in PubChem BioAssay (NCI).
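How tested: cells in 96-well plates exposed to compound for 48 hours at five concentrations. GI50 marks 50% less growth. At the TGI there is no net growth.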

How the values were obtained:
Assay in all cases: NCI-60 cell line screen, 48 h
[1] = system: 786-0 renal
[2] = system: A498 renal
[3] = system: A549 NSCLC
[4] = system: ACHN renal
[5] = system: BT-549 breast
[6] = system: CCRF-CEM leukemia
[7] = system: COLO 205 colon
[8] = system: DU-145 prostate
[9] = system: EKVX NSCLC
[10] = system: HCC-2998 colon
[11] = system: HCT-116 colon
[12] = system: HCT-15 colon
[13] = system: HL-60(TB) leukemia
[14] = system: HOP-62 NSCLC
[15] = system: HOP-92 NSCLC
[16] = system: HS 578T breast
[17] = system: HT29 colon
[18] = system: IGROV1 ovarian
[19] = system: K-562 leukemia
[20] = system: KM12 colon
[21] = system: LOX IMVI melanoma
[22] = system: M14 melanoma
[23] = system: MALME-3M melanoma
[24] = system: MCF7 breast
[25] = system: MDA-MB-231 breast
[26] = system: MDA-MB-435
[27] = system: MDA-MB-468 breast
[28] = system: MOLT-4 leukemia
[29] = system: NCI-H226 lung
[30] = system: NCI-H23 lung
[31] = system: NCI-H460 lung
[32] = system: NCI-H522 lung
[33] = system: NCI/ADR-RES ovarian
[34] = system: OVCAR-3 ovarian
[35] = system: OVCAR-4 ovarian
[36] = system: OVCAR-5 ovarian
[37] = system: OVCAR-8 ovarian
[38] = system: PC-3 prostate
[39] = system: RPMI-8226 leukemia
[40] = system: RXF 393 renal
[41] = system: SF-268 CNS
[42] = system: SF-295 CNS
[43] = system: SF-539 CNS
[44] = system: SK-MEL-2 melanoma
[45] = system: SK-MEL-28 melanoma
[46] = system: SK-MEL-5 melanoma
[47] = system: SK-OV-3 ovarian
[48] = system: SN12C renal
[49] = system: SNB-19 CNS
[50] = system: SNB-75 CNS
[51] = system: SR leukemia
[52] = system: SW-620 colon
[53] = system: T-47D breast
[54] = system: TK-10 renal
[55] = system: U251 CNS
[56] = system: UACC-257 melanoma
[57] = system: UACC-62 melanoma
[58] = system: UO-31 renal
[59] = system: CAKI-1 renal

Cc1cc(C(NC(=O)C2CC3(CC(Nc4cccc5c4C(=O)N(C4CCC(=O)NC4=O)C5=O)C3)C2)c2ccc3c(c2)OC(F)(F)O3)c(O)c2ncccc12 (stereo not given)
GI50 [1]: 0.452 µM
TGI [1]: > 100 µM
GI50 [2]: > 100 µM
TGI [2]: > 100 µM
GI50 [3]: 0.418 µM
TGI [3]: > 100 µM
GI50 [4]: 0.359 µM
TGI [4]: > 100 µM
GI50 [5]: 0.224 µM
TGI [5]: > 100 µM
GI50 [6]: 0.39 µM
TGI [6]: > 100 µM
GI50 [7]: 0.437 µM
TGI [7]: > 100 µM
GI50 [8]: 0.461 µM
TGI [8]: > 100 µM
GI50 [9]: 0.349 µM
TGI [9]: > 40.6 µM
GI50 [10]: 0.34 µM
GI50 [11]: 0.42 µM
TGI [11]: > 100 µM
GI50 [12]: 0.307 µM
TGI [12]: > 100 µM
GI50 [13]: 0.314 µM
GI50 [14]: 0.392 µM
TGI [14]: > 100 µM
GI50 [15]: 0.382 µM
TGI [15]: > 100 µM
GI50 [16]: 0.433 µM
TGI [16]: > 100 µM
GI50 [17]: 0.474 µM
TGI [17]: > 100 µM
GI50 [18]: 0.313 µM
TGI [18]: > 32.3 µM
GI50 [19]: 0.334 µM
TGI [19]: > 100 µM
GI50 [20]: 0.468 µM
TGI [20]: > 100 µM
GI50 [21]: 0.272 µM
GI50 [22]: 0.411 µM
TGI [22]: 2.66 µM
GI50 [23]: 0.522 µM
TGI [23]: > 25.4 µM
GI50 [24]: 0.303 µM
TGI [24]: > 100 µM
GI50 [25]: 0.44 µM
TGI [25]: > 42.7 µM
GI50 [26]: 0.426 µM
TGI [26]: > 100 µM
GI50 [27]: 0.473 µM
TGI [27]: 3.13 µM
GI50 [28]: 0.344 µM
TGI [28]: > 100 µM
GI50 [29]: 0.434 µM
TGI [29]: > 23.9 µM
GI50 [30]: 0.352 µM
TGI [30]: 5.54 µM
GI50 [31]: 0.198 µM
TGI [31]: > 100 µM
GI50 [32]: 0.399 µM
TGI [32]: > 100 µM
GI50 [33]: 1.6 µM
TGI [33]: 15.3 µM
GI50 [34]: 0.376 µM
TGI [34]: > 100 µM
GI50 [35]: 0.476 µM
TGI [35]: > 100 µM
GI50 [36]: 0.447 µM
TGI [36]: > 100 µM
GI50 [37]: 0.364 µM
TGI [37]: > 100 µM
GI50 [38]: 0.275 µM
TGI [38]: > 100 µM
GI50 [39]: 0.35 µM
TGI [39]: > 100 µM
GI50 [40]: 0.502 µM
TGI [40]: > 30.7 µM
GI50 [41]: 0.42 µM
TGI [41]: > 100 µM
GI50 [42]: 0.275 µM
TGI [42]: > 100 µM
GI50 [43]: 0.378 µM
TGI [43]: 3.18 µM
GI50 [44]: 0.375 µM
TGI [44]: > 100 µM
GI50 [45]: 0.405 µM
TGI [45]: > 100 µM
GI50 [46]: 0.226 µM
TGI [46]: 0.562 µM
GI50 [47]: 0.344 µM
TGI [47]: > 22.3 µM
GI50 [48]: 0.349 µM
TGI [48]: > 100 µM
GI50 [49]: 0.35 µM
TGI [49]: > 100 µM
GI50 [50]: 0.289 µM
TGI [50]: > 100 µM
GI50 [51]: 0.34 µM
TGI [51]: > 100 µM
GI50 [52]: 0.531 µM
TGI [52]: > 100 µM
GI50 [53]: 0.393 µM
TGI [53]: > 100 µM
GI50 [54]: 0.474 µM
TGI [54]: > 100 µM
GI50 [55]: 0.21 µM
TGI [55]: > 100 µM
GI50 [56]: 0.718 µM
TGI [56]: > 100 µM
GI50 [57]: 0.282 µM
TGI [57]: 1.14 µM
GI50 [58]: 0.295 µM
TGI [58]: 2.29 µM

COc1cc2oc(-c3cccc(C(=O)Nc4ccc(Cl)cc4)c3)cc(=O)c2c(OCCN)c1OC
GI50 [1]: 2.04 µM
TGI [1]: 4.14 µM
GI50 [2]: 20.7 µM
TGI [2]: 40.4 µM
GI50 [3]: 4.06 µM
TGI [3]: 20.7 µM
GI50 [4]: 10.6 µM
TGI [4]: 22.4 µM
GI50 [5]: 6.3 µM
TGI [5]: 25.7 µM
GI50 [59]: 11.2 µM
TGI [59]: 23.6 µM
GI50 [6]: 2.16 µM
TGI [6]: 4.84 µM
GI50 [7]: 3.03 µM
TGI [7]: 12.6 µM
GI50 [8]: 5.98 µM
TGI [8]: 18.3 µM
GI50 [9]: 5.66 µM
TGI [9]: 18.6 µM
GI50 [10]: 2.37 µM
TGI [10]: 6.58 µM
GI50 [11]: 2.39 µM
TGI [11]: 5.84 µM
GI50 [12]: 2.82 µM
TGI [12]: 8.51 µM
GI50 [13]: 2.38 µM
TGI [13]: 5.9 µM
GI50 [14]: 1.82 µM
TGI [14]: 4.19 µM
GI50 [15]: 2.09 µM
TGI [15]: 16.5 µM
GI50 [16]: 5.21 µM
TGI [16]: 25.3 µM
GI50 [17]: 2.28 µM
TGI [17]: 5.62 µM
GI50 [18]: 4.18 µM
TGI [18]: 18.1 µM
GI50 [20]: 6.84 µM
TGI [20]: 23.9 µM
GI50 [21]: 1.48 µM
TGI [21]: 2.8 µM
GI50 [22]: 2.02 µM
TGI [22]: 4 µM
GI50 [23]: 1.8 µM
TGI [23]: 3.35 µM
GI50 [24]: 1.66 µM
TGI [24]: 3.14 µM
GI50 [25]: 2.63 µM
TGI [25]: 7.92 µM
GI50 [26]: 1.82 µM
TGI [26]: 3.65 µM
GI50 [27]: 1.52 µM
TGI [27]: 3.03 µM
GI50 [29]: 13.4 µM
TGI [29]: 30.3 µM
GI50 [30]: 6.22 µM
TGI [30]: 19 µM
GI50 [31]: 3.17 µM
TGI [31]: 10.5 µM
GI50 [32]: 4.24 µM
TGI [32]: 19.8 µM
GI50 [33]: 13.6 µM
TGI [33]: 30.9 µM
GI50 [34]: 3.77 µM
TGI [34]: 11.7 µM
GI50 [35]: 4.38 µM
TGI [35]: 16.8 µM
GI50 [36]: 5.14 µM
TGI [36]: 18 µM
GI50 [37]: 4.09 µM
TGI [37]: 19.4 µM
GI50 [38]: 2.89 µM
TGI [38]: 19.8 µM
GI50 [39]: 2.3 µM
TGI [39]: 5.5 µM
GI50 [40]: 3.23 µM
TGI [40]: 12.7 µM
GI50 [41]: 11.8 µM
TGI [41]: 29.7 µM
GI50 [42]: 1.8 µM
TGI [42]: 3.69 µM
GI50 [43]: 3.13 µM
TGI [43]: 10.2 µM
GI50 [44]: 4.02 µM
TGI [44]: 16.2 µM
GI50 [45]: 1.64 µM
TGI [45]: 3.03 µM
GI50 [46]: 1.72 µM
TGI [46]: 3.33 µM
GI50 [47]: 11.8 µM
TGI [47]: 31.9 µM
GI50 [48]: 6.12 µM
TGI [48]: 19 µM
GI50 [49]: 4.02 µM
TGI [49]: 13.9 µM
GI50 [50]: 10.1 µM
TGI [50]: 24.1 µM
GI50 [52]: 1.85 µM
TGI [52]: 3.46 µM
GI50 [53]: 3.74 µM
TGI [53]: 23.4 µM
GI50 [54]: 7.19 µM
TGI [54]: 21.8 µM
GI50 [55]: 1.79 µM
TGI [55]: 3.27 µM
GI50 [56]: 1.73 µM
TGI [56]: 3.41 µM
GI50 [57]: 9.27 µM
TGI [57]: 22 µM
GI50 [58]: 13 µM
TGI [58]: 25.7 µM
